One block for each compound: values may come before it.
Tests used:
[1] = target: T1, E. coli class Ia RNR (EcRNR; NrdA/NrdB) (Escherichia coli, UniProt P00452); assay: LC-MS/MS of dCDP, dUDP, dADP, dGDP formation; assay type: biochemical; conditions: four substrates (CDP 70, UDP 50, GDP 200, ADP 110 μM), 3 mM ATP, 20 μM dATP, remaining activity, specificity effector, pH 7.6, 37 °C
T1 construct: both subunits N-terminally His-tagged (tags kept), codon-optimized pET30(a), E. coli T7 Express; NrdA 85774 Da, NrdB 44528 Da; alpha2 and beta2 dimers; with Ribonucleoside-diphosphate reductase 1 subunit beta
T1 sequence (P00452 1-761): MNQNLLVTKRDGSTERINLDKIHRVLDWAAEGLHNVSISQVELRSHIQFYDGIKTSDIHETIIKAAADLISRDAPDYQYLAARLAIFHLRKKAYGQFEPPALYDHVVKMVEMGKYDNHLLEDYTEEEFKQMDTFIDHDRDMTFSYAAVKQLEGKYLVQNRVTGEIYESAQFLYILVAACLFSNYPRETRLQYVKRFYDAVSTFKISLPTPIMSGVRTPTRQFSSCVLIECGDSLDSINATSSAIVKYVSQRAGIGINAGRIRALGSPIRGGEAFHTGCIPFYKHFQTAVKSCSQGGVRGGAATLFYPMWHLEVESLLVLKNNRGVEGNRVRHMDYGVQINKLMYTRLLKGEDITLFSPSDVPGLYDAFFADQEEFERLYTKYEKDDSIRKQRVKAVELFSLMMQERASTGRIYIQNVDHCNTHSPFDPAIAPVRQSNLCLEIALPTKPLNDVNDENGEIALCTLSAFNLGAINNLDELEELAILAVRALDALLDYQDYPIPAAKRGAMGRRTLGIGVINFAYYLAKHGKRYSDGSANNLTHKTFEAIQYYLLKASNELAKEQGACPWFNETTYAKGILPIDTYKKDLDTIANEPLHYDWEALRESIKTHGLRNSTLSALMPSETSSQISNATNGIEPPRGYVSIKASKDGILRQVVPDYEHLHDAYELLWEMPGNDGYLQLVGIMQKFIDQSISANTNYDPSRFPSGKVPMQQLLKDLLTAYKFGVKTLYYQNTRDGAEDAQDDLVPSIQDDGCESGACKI
T1 sequence (P69924 2-376 partner): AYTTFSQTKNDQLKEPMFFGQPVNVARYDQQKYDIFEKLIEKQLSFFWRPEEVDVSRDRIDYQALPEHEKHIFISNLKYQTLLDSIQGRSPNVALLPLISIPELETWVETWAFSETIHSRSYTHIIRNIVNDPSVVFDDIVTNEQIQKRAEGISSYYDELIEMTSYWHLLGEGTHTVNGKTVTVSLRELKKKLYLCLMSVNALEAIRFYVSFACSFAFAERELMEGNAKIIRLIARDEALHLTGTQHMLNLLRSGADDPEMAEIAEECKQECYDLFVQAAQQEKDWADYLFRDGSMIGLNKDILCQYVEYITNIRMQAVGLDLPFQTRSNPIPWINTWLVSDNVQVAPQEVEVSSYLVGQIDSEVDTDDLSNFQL

[2] = target: T1, E. coli class Ia RNR (EcRNR; NrdA/NrdB); assay: LC-MS/MS of dCDP formation; assay type: biochemical; conditions: relative to 3 mM ATP; 1 mM CDP, dATP printed as 0.175 μM and 175 μM, NrdA 0.1 μM, NrdB 0.5 μM, Trx/TrxR/NADPH, Mg, pH 7.6, 37 °C; allosteric inhibitor

- % of initial activity at 1 mM ([1]; 100 μM dGTP present): 27%
Compound: Cc1cn([C@H]2C[C@H](O)[C@@H](COP(=O)(O)OP(=O)(O)OP(=O)(O)O)O2)c(=O)[nH]c1=O [TTP]

- % inactivation [2]: 99%
Compound: Nc1ncnc2c1ncn2[C@H]1C[C@H](O)[C@@H](COP(=O)(O)OP(=O)(O)OP(=O)(O)O)O1 [dATP]

- % of initial activity at 1 mM ([1]; 250 μM TTP present): 50%
Compound: Nc1nc2c(ncn2[C@H]2C[C@H](O)[C@@H](COP(=O)(O)OP(=O)(O)OP(=O)(O)O)O2)c(=O)[nH]1 [dGTP]
